Patent US6355799B1, “Substituted benzene compounds, process for their preparation, and herbicidal and defoliant compositions containing them” (ISK Americas Incorporated, priority 1997, dated 2002)

What was measured:
Type in all cases: in vivo
[1] = tested on: redroot pigweed (Amaranthus retroflexus, AMARE); test: Pre-emerge test, greenhouse herbicide activity screening; conditions: rating scale 0-100, 14 days after application
Outline: (§1)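 Herbicidal damage is scored 0 (none) to 100 (complete plant death) two weeks after a simulated field spray. Rates span 15–1000 g ai/ha, delivered in acetone at 187 l/ha. For post-emergence treatments, plants have 2–3 leaves and the spray carries 0.25% v/v non-ionic surfactant.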

[2] = tested on: barnyardgrass (Echinochloa crus-galli, ECHCG); test: as above; conditions: rating scale 0-100, 14 days after application
Outline: (§2)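 Plants grown in 10 cm pots of sandy loam mix received acetone-dissolved compounds through a moving flat-fan nozzle. Doses ranged from 15 to 1000 g ai/ha. Pre-emerge pots were seeded one day earlier, post-emerge pots 8–21 days earlier. Fourteen days on, each pot was graded 0–100 for damage.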

[3] = tested on: green foxtail (Setaria viridis, SETVI); test: as above; conditions: rating scale 0-100, 14 days after application
Outline: as §2

[4] = tested on: ivyleaf morningglory (Ipomoea hederacea, IPOHE); test: as above; conditions: rating scale 0-100, 14 days after application
Outline: as §2

[5] = tested on: johnsongrass (Sorghum halepense, SORHA); test: as above; conditions: rating scale 0-100, 14 days after application
Outline: as §2

[6] = tested on: lambsquarters (Chenopodium album, CHEAL); test: as above; conditions: rating scale 0-100, 14 days after application
Outline: as §2

[7] = tested on: large crabgrass (Digitaria sanguinalis, DIGSA); test: as above; conditions: rating scale 0-100, 14 days after application
Outline: as §2

[8] = tested on: sicklepod (Cassia obtusifolia, CASOB); test: as above; conditions: rating scale 0-100, 14 days after application
Outline: as §2

[9] = tested on: velvetleaf (Abutilon theophrasti, ABUTH); test: as above; conditions: rating scale 0-100, 14 days after application
Outline: as §2

[10] = tested on: field corn (Zea mays L., var. Dekalb 535, CORN); test: Pre-emerge test, crop safety; conditions: rating scale 0-100, 14 days after application
Outline: as §2

[11] = tested on: upland rice (Oryza sp., var. Tebonnet, RICE); test: Pre-emerge test, crop safety; conditions: rating scale 0-100, 14 days after application
Outline: as §2

[12] = tested on: barnyardgrass (Echinochloa crus-galli, ECHCG); test: Post-emerge test, greenhouse herbicide activity screening; conditions: post-emerge, phytotoxicity rating 0-100 at 14 days after application
Outline: as §1

[13] = tested on: green foxtail (Setaria viridis, SETVI); test: as above; conditions: post-emerge, phytotoxicity rating 0-100 at 14 days after application
Outline: as §1

[14] = tested on: ivyleaf morningglory (Ipomoea hederacea, IPOHE); test: as above; conditions: post-emerge, phytotoxicity rating 0-100 at 14 days after application
Outline: as §1

[15] = tested on: johnsongrass (Sorghum halepense, SORHA); test: as above; conditions: post-emerge, phytotoxicity rating 0-100 at 14 days after application
Outline: as §1

[16] = tested on: lambsquarters (Chenopodium album, CHEAL); test: as above; conditions: post-emerge, phytotoxicity rating 0-100 at 14 days after application
Outline: as §1

[17] = tested on: large crabgrass (Digitaria sanguinalis, DIGSA); test: as above; conditions: post-emerge, phytotoxicity rating 0-100 at 14 days after application
Outline: as §1

[18] = tested on: redroot pigweed (Amaranthus retroflexus, AMARE); test: as above; conditions: post-emerge, phytotoxicity rating 0-100 at 14 days after application
Outline: as §1

[19] = tested on: sicklepod (Cassia obtusifolia, CASOB); test: as above; conditions: post-emerge, phytotoxicity rating 0-100 at 14 days after application
Outline: as §1

[20] = tested on: velvetleaf (Abutilon theophrasti, ABUTH); test: as above; conditions: post-emerge, phytotoxicity rating 0-100 at 14 days after application
Outline: as §1

[21] = tested on: field corn (Zea mays L., var. Dekalb 535, CORN); test: Post-emerge test, crop safety; conditions: post-emerge, crop damage rating 0-100 at 14 days after application
Outline: (§3)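 Each test used a mechanized track sprayer delivering 187 l/ha of acetone solution at 15–1000 g ai/ha. Post-emerge foliage at 2–3 leaves was treated with added 0.25% v/v non-ionic surfactant and bottom-watered only. Injury was assessed on day 14, where 100 means total kill.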

[22] = tested on: upland rice (Oryza sp., var. Tebonnet, RICE); test: Post-emerge test, crop safety; conditions: post-emerge, crop damage rating 0-100 at 14 days after application
Outline: as §3

Structure (SMILES): Nc1c(O)c(Cl)cc(F)c1N1C(=O)C2CCCCN2C1=S (single isomer, unassigned) [12-3]
- Pre-emerge herbicidal activity, phytotoxicity rating AMARE ([1]; 63 g ai/ha): 95
- Pre-emerge herbicidal activity, phytotoxicity rating AMARE ([1]; 250 g ai/ha): 100
- Pre-emerge herbicidal activity, phytotoxicity rating ECHCG ([2]; 63 g ai/ha): 0
- Pre-emerge herbicidal activity, phytotoxicity rating ECHCG ([2]; 250 g ai/ha): 0
- Pre-emerge herbicidal activity, phytotoxicity rating SETVI ([3]; 63 g ai/ha): 0
- Pre-emerge herbicidal activity, phytotoxicity rating SETVI ([3]; 250 g ai/ha): 30
- Pre-emerge herbicidal activity, phytotoxicity rating IPOHE ([4]; 63 g ai/ha): 0
- Pre-emerge herbicidal activity, phytotoxicity rating IPOHE ([4]; 250 g ai/ha): 90
- Pre-emerge herbicidal activity, phytotoxicity rating SORHA ([5]; 63 g ai/ha): 0
- Pre-emerge herbicidal activity, phytotoxicity rating SORHA ([5]; 250 g ai/ha): 0
- Pre-emerge herbicidal activity, phytotoxicity rating CHEAL ([6]; 63 g ai/ha): 100
- Pre-emerge herbicidal activity, phytotoxicity rating CHEAL ([6]; 250 g ai/ha): 100
- Pre-emerge herbicidal activity, phytotoxicity rating DIGSA ([7]; 63 g ai/ha): 0
- Pre-emerge herbicidal activity, phytotoxicity rating DIGSA ([7]; 250 g ai/ha): 30
- Pre-emerge herbicidal activity, phytotoxicity rating CASOB ([8]; 63 g ai/ha): 30
- Pre-emerge herbicidal activity, phytotoxicity rating CASOB ([8]; 250 g ai/ha): 70
- Pre-emerge herbicidal activity, phytotoxicity rating ABUTH ([9]; 63 g ai/ha): 100
- Pre-emerge herbicidal activity, phytotoxicity rating ABUTH ([9]; 250 g ai/ha): 100
- Pre-emerge phytotoxicity rating, crop damage CORN ([10]; 63 g ai/ha): 0
- Pre-emerge phytotoxicity rating, crop damage CORN ([10]; 250 g ai/ha): 0
- Pre-emerge phytotoxicity rating, crop damage RICE ([11]; 63 g ai/ha): 10
- Pre-emerge phytotoxicity rating, crop damage RICE ([11]; 250 g ai/ha): 20
- Post-emerge Herbicidal Activity ECHCG ([12]; 63 g ai/ha): 0
- Post-emerge Herbicidal Activity ECHCG ([12]; 250 g ai/ha): 10
- Post-emerge Herbicidal Activity SETVI ([13]; 63 g ai/ha): 0
- Post-emerge Herbicidal Activity SETVI ([13]; 250 g ai/ha): 0
- Post-emerge Herbicidal Activity IPOHE ([14]; 63 g ai/ha): 50
- Post-emerge Herbicidal Activity IPOHE ([14]; 250 g ai/ha): 90
- Post-emerge Herbicidal Activity SORHA ([15]; 63 g ai/ha): 0
- Post-emerge Herbicidal Activity SORHA ([15]; 250 g ai/ha): 50
- Post-emerge Herbicidal Activity CHEAL ([16]; 63 g ai/ha): 90
- Post-emerge Herbicidal Activity CHEAL ([16]; 250 g ai/ha): 100
- Post-emerge Herbicidal Activity DIGSA ([17]; 63 g ai/ha): 0
- Post-emerge Herbicidal Activity DIGSA ([17]; 250 g ai/ha): 0
- Post-emerge Herbicidal Activity AMARE ([18]; 63 g ai/ha): 95
- Post-emerge Herbicidal Activity AMARE ([18]; 250 g ai/ha): 99
- Post-emerge Herbicidal Activity CASOB ([19]; 63 g ai/ha): 20
- Post-emerge Herbicidal Activity CASOB ([19]; 250 g ai/ha): 80
- Post-emerge Herbicidal Activity ABUTH ([20]; 63 g ai/ha): 90
- Post-emerge Herbicidal Activity ABUTH ([20]; 250 g ai/ha): 90
- Post-emerge Herbicidal Activity CORN ([21]; 63 g ai/ha): 5
- Post-emerge Herbicidal Activity CORN ([21]; 250 g ai/ha): 10
- Post-emerge Herbicidal Activity RICE ([22]; 63 g ai/ha): 0
- Post-emerge Herbicidal Activity RICE ([22]; 250 g ai/ha): 5
